Laboratory results published in PubChem BioAssay (NCI).
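In this assay, cells in 96-well plates receive the compound at five concentrations for 48 hours. Endpoints are linearly interpolated between the surrounding concentrations. GI50 is the concentration that inhibits growth by half. At the TGI there is no net growth.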

How the values were obtained:
Test in all cases: DTP human tumour cell line panel, 48 h
UACC-257 melanoma = tested on: UACC-257 melanoma
786-0 renal = tested on: 786-0 renal
U251 CNS = tested on: U251 CNS
CAKI-1 renal = tested on: CAKI-1 renal
SF-295 CNS = tested on: SF-295 CNS
MDA-MB-231 breast = tested on: MDA-MB-231 breast
RPMI-8226 leukemia = tested on: RPMI-8226 leukemia
HCC-2998 colon = tested on: HCC-2998 colon
SK-MEL-28 melanoma = tested on: SK-MEL-28 melanoma
UO-31 renal = tested on: UO-31 renal
MDA-MB-435 = tested on: MDA-MB-435
NCI/ADR-RES ovarian = tested on: NCI/ADR-RES ovarian
EKVX NSCLC = tested on: EKVX NSCLC
TK-10 renal = tested on: TK-10 renal
NCI-H226 lung = tested on: NCI-H226 lung
HL-60(TB) leukemia = tested on: HL-60(TB) leukemia
NCI-H522 lung = tested on: NCI-H522 lung
MOLT-4 leukemia = tested on: MOLT-4 leukemia
M14 melanoma = tested on: M14 melanoma
HT29 colon = tested on: HT29 colon
COLO 205 colon = tested on: COLO 205 colon
SW-620 colon = tested on: SW-620 colon
K-562 leukemia = tested on: K-562 leukemia
HCT-116 colon = tested on: HCT-116 colon
SNB-19 CNS = tested on: SNB-19 CNS
A498 renal = tested on: A498 renal
SNB-75 CNS = tested on: SNB-75 CNS

COc1cccc(C2C3=C(COC3=O)N(CCO)c3cc(OC)ccc32)c1 (stereo unspecified)
GI50 (UACC-257 melanoma): 36 nM | TGI (UACC-257 melanoma): > 100000 nM | GI50 (786-0 renal): 148 nM | TGI (786-0 renal): > 29600 nM | GI50 (U251 CNS): 99.2 nM | TGI (U251 CNS): > 100000 nM | GI50 (CAKI-1 renal): 768 nM | TGI (CAKI-1 renal): > 100000 nM | GI50 (SF-295 CNS): 42.2 nM | TGI (SF-295 CNS): > 100000 nM | GI50 (MDA-MB-231 breast): 362 nM | TGI (MDA-MB-231 breast): 4910 nM | GI50 (RPMI-8226 leukemia): 271 nM | TGI (RPMI-8226 leukemia): > 100000 nM | GI50 (HCC-2998 colon): 137 nM | TGI (HCC-2998 colon): > 100000 nM | GI50 (SK-MEL-28 melanoma): 130 nM | TGI (SK-MEL-28 melanoma): > 100000 nM | GI50 (UO-31 renal): 187 nM | TGI (UO-31 renal): > 100000 nM | GI50 (MDA-MB-435): 23.2 nM | TGI (MDA-MB-435): 63.1 nM | GI50 (NCI/ADR-RES ovarian): 90.8 nM | GI50 (EKVX NSCLC): 22600 nM | TGI (EKVX NSCLC): > 100000 nM | TGI (TK-10 renal): > 100000 nM | GI50 (NCI-H226 lung): 182 nM | TGI (NCI-H226 lung): 8860 nM | GI50 (HL-60(TB) leukemia): 276 nM | TGI (HL-60(TB) leukemia): > 100000 nM | GI50 (NCI-H522 lung): 30.7 nM | TGI (NCI-H522 lung): 1440 nM | GI50 (MOLT-4 leukemia): 440 nM | TGI (MOLT-4 leukemia): > 100000 nM | GI50 (M14 melanoma): 156 nM | TGI (M14 melanoma): > 100000 nM | GI50 (HT29 colon): 74.3 nM | TGI (HT29 colon): 2900 nM | GI50 (COLO 205 colon): 107 nM | TGI (COLO 205 colon): 755 nM | GI50 (SW-620 colon): 86.3 nM | TGI (SW-620 colon): > 100000 nM | GI50 (K-562 leukemia): 89.5 nM | TGI (K-562 leukemia): > 100000 nM | GI50 (HCT-116 colon): 107 nM | GI50 (SNB-19 CNS): 221 nM | TGI (SNB-19 CNS): > 100000 nM | GI50 (A498 renal): 36.7 nM | TGI (A498 renal): 1080 nM | GI50 (SNB-75 CNS): 67.1 nM | TGI (SNB-75 CNS): > 100000 nM
